This is an account of results in patent publication US10189795B2, “Aryl amine substituted quinoxaline used as anticancer drugs” (priority 2014, dated 2019).

Data set [1] has as its system A549. The data set can be described thus: cell viability of A549 cells, 1 and 10 uM. Format: cell-based. Particulars: Homo sapiens. Here is the method:
[Worded in the source for another cell line; this cell line is reported under the same test.] (§1) Sorafenib (Nexavar), erlotinib (Tarceva) and Paclitaxel were kindly provided by Bayer Pharmaceuticals (Pittsburgh, Pa., USA) and Roche Pharmaceuticals (Basel, Switzerland) respectively. Okadaic acid (OA) was purchased from Cayman Chemical (Ann Arbor, Mich., USA) and z-VAD-fmk was obtained from Sigma (St. Louis, Mo., USA). For in vitro studies, drugs at various concentrations were dissolved in dimethyl sulfoxide (DMSO), and added to cells in Dulbecco's modified Eagle's medium (DMEM) or Roswell Park Memorial Institute (RPMI) containing 5% fetal bovine serum (FBS).
(§2) The Sk-Hep1, PLC/PRF/5 (PLC) and Hep3B cell lines were obtained from American Type Culture Collection (ATCC; Manassas, Va., USA). The Huh-7 HCC cell line was obtained from the Health Science Research Resources Bank (HSRRB; Osaka, Japan; JCRB0403). Cells were maintained in DMEM supplemented with 10% FBS in a 37° C. humidified incubator in an atmosphere of 5% CO^2 in air.

For data set [2], the system named is NCI-1703. Description: cell viability of NCI-1703 cells, 1 and 10 uM of each erlotinib derivative, and IC50. Particulars: Homo sapiens; for IC50: cell viability. Format: cell-based. Here is the method:
[Worded in the source for another cell line; this cell line is reported under the same test.] as §1, §2

Data set [3] deals with NCI-H226. Description: cell viability of NCI-H226 cells, 1 and 10 uM. In kind it is cell-based. Particulars: Homo sapiens. The method, then:
[Worded in the source for another cell line; this cell line is reported under the same test.] as §1, §2

For data set [4], the system named is SW900. The data set can be described thus: cell viability of SW900 cells, 1 and 10 uM. Format: cell-based. Conditions: Homo sapiens. Here is the method: [Worded in the source for another cell line; this cell line is reported under the same test.] as §1, §2
The subject of data set [5] is H520. The data set can be described thus: cell viability of H520 cells, 1 and 10 uM. In kind it is cell-based. Particulars: Homo sapiens, NCI-H520. Here is the method: [Worded in the source for another cell line; this cell line is reported under the same test.] as §1, §2
In data set [6] the test system is H2170. The data set can be described thus: cell viability of H2170 cells, 1 and 10 uM. Format: cell-based. Conditions: Homo sapiens, NCI-H2170. Here is the method: [Worded in the source for another cell line; this cell line is reported under the same test.] as §1, §2
The nature of data set [7]: BA (%), Table 5. Conditions: in vivo.
The subject of data set [8] is H358. Description: cell viability of H358 cells, 1 and 10 uM. Format: cell-based. Particulars: Homo sapiens, NCI-H358. The method, then: [Worded in the source for another cell line; this cell line is reported under the same test.] as §1, §2
Data set [9] deals with PP2A. Description: PP2A phosphatase activity (malachite green-phosphate assay in cell lysate). Format: cell-based. The method, then: The protein phosphatase activity in each cell lysate was determined by measuring the generation of free phosphate from threonine phosphopeptide using the malachite green-phosphate complex assay as described by the manufacturer (Upstate Biotechnology, Lake Placid, N.Y., USA). In brief, HCC cell lysates were first prepared in a low-detergent lysis buffer. […] After incubation for 10 min at 30° C., the malachite dye was added and free phosphate was measured by optical density at 650 nm. In order to avoid variation resulting from differences in the amount of immunoprecipitation protein between samples, the phosphatase activities were normalized to the amounts of PP2A immunoprecipitated, which were detected and quantified by immunoblot analysis for each treatment group.

In data set [10] the target is T1, SET-PP2Ac binding (Homo sapiens, UniProt Q01105).
T1 construct: His; purchased Genway (SET-His); Abnova (PP2Ac-GST) GWB-ATG319; H00005515
The data set can be described thus: disruption of SET-PP2Ac binding (surface plasmon resonance, co-IP). The method, then:
Binding affinities of full-length SET and truncated SET to PP2Ac and the effect of the erlotinib derivatives of the present invention on disrupting SET and PP2Ac were analyzed. PP2Ac-GST recombinant protein was bound in the CMS chip pre-coated with GST-capture antibodies. Sensorgrams were generated by injecting several concentrations of the erlotinib derivatives of the present invention mixed with fixed-concentration of SET recombinant protein, or the mixture of different concentration of truncated SET proteins in a fixed-dose EMQA. PP2Ac-GST recombinant protein used for this experiment was purchased from Abnova (H00005515) and SET-His recombinant protein was obtained from Genway (GWB-ATG319).
EMQA reactivates PP2A by disrupting the binding of SET-PP2Ac. To validate the role of SET, the present invention generated Hep3B cells with ectopic expression of myc-tagged SET by transient transfection. […] With a fixed amount of PP2Ac coated on the CM chip, the present invention tested the effects of a fixed-dose of EMQA on interfering different proportions of full-length and truncated forms of SET proteins in SPR system. […] To validate the findings of this ex vivo system, the present invention generated cells with ectopic overexpression of these two truncated forms of Flag-tagged SET proteins by transient transfections.
Background: SPR reads the build-up and loss of mass on a sensor chip optically.

In data set [11] the test system is PLC5 xenograft tumor. The data set can be described thus: PLC5 xenograft tumor growth in nude mice. Format: in vivo. Particulars: 10 mg/kg, oral gavage daily, 4 weeks, vs control arm. The method, then: Male NCr athymic nude mice (5-7 weeks of age) were obtained from the National Laboratory Animal Center (Taipei, Taiwan). All experimental procedures using these mice were performed in accordance with protocols approved by the Institutional Laboratory Animal Care and Use Committee of National Taiwan University. Each mouse was inoculated subcutaneously in the dorsal flank with 1×10^6 PLC5 or A549 cells suspended in serum-free medium containing 50% Matrigel (BD Biosciences, Bedford, Mass., USA). When tumors reached 100-150 mm^3, mice were treated with sorafenib, the erlotinib derivatives of the present invention, or vehicle (control) at 10 mg/kg/day daily by oral gavage for 4 weeks.
The present invention used a PLC5 xenograft mouse model to assess the effects of TD-52 in vivo. The present choose sorafenib as one of the comparative treatment arms. Tumor-bearing mice were administered sorafenib (10 mg/kg), TD-52 (10 mg/kg) or DMSO (vehicle, as control). […] The present invention further examined the xenografted tumors taken from mice receiving TD-52 and vehicle to confirm the molecular events in the tumor tissue. […] When PP2A activity was enhanced by TD-52, Akt was dephosphorylated, promoting HCC cell apoptosis.

T1 sequence (Q01105 1-277 isoform Q01105-2): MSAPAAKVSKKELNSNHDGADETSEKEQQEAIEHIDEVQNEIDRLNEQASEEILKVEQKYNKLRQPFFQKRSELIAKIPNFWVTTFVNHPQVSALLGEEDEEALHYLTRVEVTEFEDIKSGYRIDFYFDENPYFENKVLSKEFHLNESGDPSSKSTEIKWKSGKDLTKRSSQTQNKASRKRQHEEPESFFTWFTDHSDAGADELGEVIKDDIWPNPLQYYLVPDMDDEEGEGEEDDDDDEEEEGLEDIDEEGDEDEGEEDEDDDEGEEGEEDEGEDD

With `Cc1ccc(Nc2nc3ccccc3nc2Nc2ccc(C)c(O)c2)cc1O` [TD66, 5,5′-(quinoxaline-2,3-diylbis(azanediyl))bis(2-methylphenol)], the viability (as a rule, a read-out of living cells in per cent, often relative to untreated cells) at 1 µM in data set [1] was 55.5 ± 5.1%; in data set [2], 84.5 ± 2.3%; in data set [3] it was 71.2 ± 1.2%; in [4], 113 ± 4.64%; in data set [5] it was 104 ± 8.53%; in data set [6], 101.5 ± 0.48%. For the same molecule, the viability at 1 µM in data set [8] worked out at 96.6 ± 0.9%. The viability at 10 µM in data set [1] worked out at 11.1 ± 0.6%; in data set [2], 10.1 ± 0.2%; in [3], 4.7 ± 0.1%; in [4], 77.4 ± 20.5%; in data set [5] it was 51.7 ± 20.5%; in data set [6], 3.7 ± 1.37%. The viability at 10 µM in [8] turned out to be 14.9 ± 3%. Further, in data set [7], the “BA (%)” value was determined as 22%.
On to `FC(F)(F)Oc1ccc(Nc2nc3ccccc3nc2Cl)cc1` [TD80, 3-chloro-N-(4-(trifluoromethoxy)phenyl)quinoxalin-2-amine], for which the viability at 1 µM amounted to 110 ± 6% in data set [1]; 106 ± 5.2% in [2]; 103 ± 10.7% in data set [3]; 99.8 ± 11.8% in [4]; 104 ± 1.3% in [5]; 91.6 ± 5.42% in data set [6]. In addition, in [8], the viability at 1 µM turned out to be 119 ± 3.7%. For the same molecule, the viability at 10 µM is 83.4 ± 16.4% in data set [1]; 52.3 ± 2.4% in data set [2]; 87.8 ± 9.3% in data set [3]; 88 ± 13.4% in data set [4]; 92.2 ± 4.42% in data set [5]; 87.56 ± 0.78% in [6]. Moreover, the viability at 10 µM in data set [8] was determined as 89.4 ± 11.9%. The “minimal concentration for PP2A activation” value in data set [9] is recorded as more than 200 nM. Besides, in [10], the “minimal concentration to disrupt SET-PP2Ac binding” value is more than 200 nM.
For `FS(F)(F)(F)(F)c1ccc(Nc2nc3ccccc3nc2Cl)cc1` [TD81, 3-chloro-N-(4-(Pentafluorothio)phenyl)quinoxalin-2-amine], the viability at 1 µM in [1] is 95.6 ± 15.9%; in data set [2], 82.7 ± 5%; in data set [3], 100 ± 4.1%; in [4], 86.9 ± 7.36%; in data set [5], 103.4 ± 0.14%; in data set [6] it was 100 ± 6.2%. Further, the viability at 1 µM in data set [8] turned out to be 116 ± 5.9%. Besides, the viability at 10 µM in [1] came out at 69.4 ± 3.4%; in [2], 85.8 ± 0.1%; in [3] it was 92 ± 3.8%; in [4], 60.2 ± 11.2%; in data set [5] it was 72.4 ± 11.3%; in [6], 82.7 ± 2.44%. In addition, the viability at 10 µM in data set [8] was 75.5 ± 3.9%. Besides, the “minimal concentration for PP2A activation” value in [9] is on record as more than 200 nM. For the same molecule, in data set [10], the “minimal concentration to disrupt SET-PP2Ac binding” value was more than 200 nM.
As to `C#Cc1cccc(Nc2nc3cc([N+](=O)[O-])ccc3nc2Nc2ccc(OC)cc2)c1` [TD605, N^3-(3-ethynylphenyl)-N^2-(4-methoxyphenyl)-6-nitroquinoxaline-2,3-diamine], the viability at 1 µM was 83.7 ± 7% in data set [1]; 20.8 ± 0.4% in data set [2]; 53.1 ± 1.9% in data set [3]; 87.1 ± 27.2% in data set [4]; 89.1 ± 6.09% in data set [5]; 108 ± 3.88% in data set [6]. In [8], the viability at 1 µM amounted to 101 ± 13.6%. The viability at 10 µM in [1] stood at 113 ± 18.3%; in data set [2] it was 13.8 ± 0.2%; in data set [3], 5.5 ± 0.2%; in data set [4], 2.21 ± 1.34%; in data set [5], 0.78 ± 0.39%; in data set [6] it was 5.53 ± 0.81%. Also, the viability at 10 µM in [8] was 113 ± 12%. Moreover, the IC50 – broadly, the midpoint of a concentration-inhibition curve – in data set [2] stood at 500 nM. The “minimal concentration for PP2A activation” value in data set [9] lay in the range of 100 to 200 nM. The “minimal concentration to disrupt SET-PP2Ac binding” value in data set [10] is 100 to 200 nM.
Consider `Nc1ccc2nc(Nc3ccc(C(F)(F)F)cc3)c(Nc3ccc(C(F)(F)F)cc3)nc2c1` [TD607, N^2,N^3-bis(4-(trifluoromethyl)phenyl)quinoxaline-2,3,6-triamine], for which the viability at 1 µM in [1] is 100 ± 5.9%; in data set [2] it was 49.7 ± 2.7%; in data set [3], 106 ± 2.6%; in [4], 85.9 ± 10.4%; in data set [5] it was 63.4 ± 53.7%; in data set [6], 104 ± 14.2%. For the same molecule, in [8], the viability at 1 µM was found to be 116 ± 15.5%. Further, the viability at 10 µM stood at 9.5 ± 0.6% in data set [1]; 13.4 ± 1.6% in data set [2]; 36.7 ± 2.2% in data set [3]; 0.61 ± 5% in [4]; 1.34 ± 0.93% in data set [6]; 12.1 ± 0.3% in data set [8]. This molecule registered an IC50 in data set [2] of 1300 nM. Further, the “minimal concentration for PP2A activation” value in data set [9] was more than 200 nM. Besides, the “minimal concentration to disrupt SET-PP2Ac binding” value in data set [10] is listed as more than 200 nM.
`COc1cccc(Nc2nc3ccc([N+](=O)[O-])cc3nc2Nc2cccc(OC)c2)c1` [TD608, N^2,N^3-bis(3-methoxyphenyl)-6-nitroquinoxaline-2,3-diamine]: the viability at 1 µM is 71.5 ± 35% in [1]; 52.8 ± 4.5% in data set [2]; 104 ± 2.5% in [3]; 114 ± 2.6% in data set [4]; 97 ± 19.8% in [5]; 113 ± 8.63% in data set [6]. Also, the viability at 1 µM in data set [8] came to 110 ± 44%. In addition, the viability at 10 µM in data set [1] amounted to 10.3 ± 3.5%; in data set [2], 12.7 ± 0.9%; in [3], 40.6 ± 2.4%; in [4], 39.8 ± 51.2%; in data set [5], 1.77 ± 1.7%; in data set [6], 4.71 ± 0.24%. In addition, the viability at 10 µM in data set [8] is 31.7 ± 33.3%. Also, the “minimal concentration for PP2A activation” value in [9] was more than 200 nM. In addition, the “minimal concentration to disrupt SET-PP2Ac binding” value in data set [10] was more than 200 nM.
In the case of `C#Cc1cccc(Nc2nc3cc([N+](=O)[O-])ccc3nc2Nc2ccc(O)cc2)c1` [TD619, 4-(2-(3-ethynylphenylamino)-7-nitroquinoxalin-3-ylamino)phenol], the viability at 1 µM in data set [1] was 105 ± 19.5%; in [2] it was 119 ± 11.2%; in [3], 110 ± 18.2%; in [8], 87.5 ± 3.6%. Moreover, the viability at 10 µM in data set [1] came to 20.9 ± 1.7%; in [2], 33.6 ± 5.4%; in [3], 19.5 ± 0.7%; in data set [8], 22.1 ± 0.6%. The “BA (%)” value in data set [7] came out at 62%.
On to `CNC(=O)c1cc(Oc2ccc(NC(=O)Nc3ccc(Cl)c(C(F)(F)F)c3)cc2)ccn1` [sorafenib, reference compound], for which the tumor size result in data set [11] is reported as “smaller than those of the control arm”.
